Read-outs that look alike come from different tables or passages of the source. Starred links: 1 amine or outer side, 2 acyl side, 3 side chain; linkers in the order of their positions; H or OH if unused. Non-standard residues stand in square brackets, D forms with d. Residues, ends and D or L forms follow the SMILES beside them. Groups on a side chain read outwards from the residue. *: point of attachment. C18 diacid = O=C(O)CCCCCCCCCCCCCCCCC(=O)*; γGlu = O=C(O)[C@H](CCC(=O)[*:2])N[*:1]; AEEA = NCCOCCOCC(=O)O; Aib = CC(C)(N)C(=O)O
Key:
rat CRF2R α receptor = experiment: cAMP agonism at rat CRF2R α receptor in A7R5 rat aortic smooth muscle cells (Example 8); format: cell-based; settings: cAMP HTRF, A7R5 rat aortic smooth muscle cell line, 0% HSA
Method in brief: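 Potency (EC50) is the concentration reaching half-maximal activation, with responses scaled so that 1000 nM urocortin 2 equals 100%. Intracellular cAMP was quantified by homogeneous time-resolved fluorescence at 665/620 nm, 1 h after lysis-buffer reagents. Compound stimulation lasted 30 min at room temperature on 2000 IBMX-treated (2 mM) cells per well in HEPES-buffered HBSS.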

[1] = Chemical stability, purity loss by UPLC-UV after 28 days at 40° C. vs 5° C., pH 4.5 acetate buffer (Example 12); format: physicochemical; settings: 28 days 40° C. vs 5° C.; pH 4.5, 20 mM acetate buffer; 300 μM
Method in brief: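 300 μM compound (purity-corrected) in 20 mM acetate buffer, pH 4.5, stored 28 days at 5 and 40° C. Purity by UPLC-UV as compound peak area over total peak area. Value is the purity difference between 5° C. and 40° C. samples, relative to the 5° C. purity, in percent.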

CRF1R receptor = target: T1, CRF1R receptor (Homo sapiens, UniProt P34998); experiment: cAMP activity at anti-target CRF1R, CRF1R-overexpression CHO cell line (Example 9); format: cell-based; settings: CRF1R-overexpression CHO cell line; for EC50: 0% HSA; for Emax: read-out: Emax (%)
T1 construct: host or cells: CHO-K1 clone 2
T1 sequence (P34998 24-415): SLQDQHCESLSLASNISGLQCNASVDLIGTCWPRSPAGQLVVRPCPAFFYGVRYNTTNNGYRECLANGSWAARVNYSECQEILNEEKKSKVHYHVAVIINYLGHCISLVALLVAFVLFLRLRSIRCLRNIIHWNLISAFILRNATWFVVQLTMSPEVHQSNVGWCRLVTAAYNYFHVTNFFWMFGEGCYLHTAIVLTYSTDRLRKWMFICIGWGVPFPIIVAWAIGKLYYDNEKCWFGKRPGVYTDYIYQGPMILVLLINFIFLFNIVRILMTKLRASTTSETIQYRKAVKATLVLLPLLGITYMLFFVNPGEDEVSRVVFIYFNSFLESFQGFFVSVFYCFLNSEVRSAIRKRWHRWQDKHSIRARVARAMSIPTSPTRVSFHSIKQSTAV
Method in brief: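 Using thawed CRF1R-overexpressing CHO cells at 2000 per well, compound is applied for 30 min at RT in HBSS/HEPES buffer with IBMX. Cellular cAMP content is determined via HTRF, and percent activity is calculated against 1000 nM UCN2 defined as 100%.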

human CRF2α receptor = target: T2, human CRF2α receptor (Homo sapiens, UniProt Q13324); experiment: cAMP agonism at human CRF2 α receptor in TeloHEAC cells (Example 7); format: cell-based; settings: cAMP HTRF, TeloHEAC cells stably expressing human CRF2 α
T2 construct: expressed in transfected cells; host or cells: TeloHEAC
T2 sequence (Q13324 1-411): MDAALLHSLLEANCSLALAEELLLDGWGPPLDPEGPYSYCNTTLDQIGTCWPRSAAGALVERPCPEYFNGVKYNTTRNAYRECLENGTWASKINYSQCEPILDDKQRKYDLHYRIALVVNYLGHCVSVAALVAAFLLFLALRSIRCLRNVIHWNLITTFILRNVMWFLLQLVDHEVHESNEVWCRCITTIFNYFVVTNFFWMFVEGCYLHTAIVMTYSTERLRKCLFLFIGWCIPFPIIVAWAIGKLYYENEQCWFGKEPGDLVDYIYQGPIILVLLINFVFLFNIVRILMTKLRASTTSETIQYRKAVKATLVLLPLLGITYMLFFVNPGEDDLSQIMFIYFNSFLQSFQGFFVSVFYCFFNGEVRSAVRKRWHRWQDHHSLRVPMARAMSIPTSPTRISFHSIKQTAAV
Method in brief: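 Cryopreserved cells are thawed, washed and resuspended in IBMX-containing (2 mM) HEPES-buffered HBSS with or without 0.1% HSA. Compound incubation runs 30 min at room temperature with 2000 cells per well, then cAMP is measured by time-resolved FRET. Potency is expressed as EC50, efficacy relative to urocortin 2 at 1000 nM.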

[2] = 0% HSA, read-out: EC50 [nM], 0% HSA
[3] = 0.1% HSA, read-out: EC50 [nM], 0.1% HSA

EC50 (rat CRF2R α receptor) [nM]	Relative purity loss [%] [1] [%]	EC50 (CRF1R receptor) [nM]	Emax (CRF1R receptor) [%]	EC50 (human CRF2α receptor; [2]) [nM]	EC50 (human CRF2α receptor; [3]) [nM]	SMILES
0.38	3.10	> 1000	21.8	0.05	2.41	CC[C@H](C)[C@H](N)C(=O)N[C@H](C(=O)N[C@@H](CC(C)C)C(=O)N[C@@H](CO)C(=O)N[C@@H](CC(C)C)C(=O)N[C@@H](CC(=O)O)C(=O)N[C@@H](C(=O)N1CCC[C@H]1C(=O)N[C@H](C(=O)N[C@@H](CCCCN)C(=O)N[C@@H](CC(C)C)C(=O)N[C@@H](CCCCNC(=O)COCCOCCNC(=O)COCCOCCNC(=O)CC[C@H](NC(=O)CCCCCCCCCCCCCCCCC(=O)O)C(=O)O)C(=O)N[C@@H](CCC(N)=O)C(=O)N[C@H](C(=O)N[C@@H](CC(C)C)C(=O)N[C@@H](CC(C)C)C(=O)N[C@@H](CCCCN)C(=O)N[C@@H](CCC(N)=O)C(=O)N[C@@H](CCC(=O)O)C(=O)N[C@@H](CCCNC(=N)N)C(=O)N[C@@H](CCC(N)=O)C(=O)N[C@@H](CCCCN)C(=O)N[C@@H](CCCCN)C(=O)NC(C)(C)C(=O)N[C@@H](CCCNC(=N)N)C(=O)N[C@@H](CCC(N)=O)C(=O)N[C@@H](CCCCN)C(=O)N[C@@H](C)C(=O)N[C@@H](CCC(=O)O)C(=O)N[C@@H](CCCCN)C(=O)N[C@@H](CC(N)=O)C(=O)N[C@@H](CCCCN)C(=O)N[C@@H](CCC(N)=O)C(=O)N[C@H](C(=O)N[C@@H](CC(C)C)C(=O)N[C@@H](C)C(=O)N[C@@H](CCC(N)=O)C(=O)N[C@H](C(N)=O)C(C)C)[C@@H](C)CC)[C@@H](C)CC)[C@@H](C)CC)C(C)C)C(C)C [compound 136] (H-IVLSLD[dV]PIKLK([AEEA-AEEA-γGlu-C18 diacid])QILLKQERQKK[Aib]RQKAEKNKQILAQV-NH2; N-terminus assumed)
0.14	4.80	> 1000	22.5	0.04	1.78	CC[C@H](C)[C@H](N)C(=O)N[C@H](C(=O)N[C@@H](CC(C)C)C(=O)N[C@@H](CO)C(=O)N[C@@H](CC(C)C)C(=O)N[C@@H](CC(=O)O)C(=O)N[C@@H](C(=O)N1CCC[C@H]1C(=O)N[C@H](C(=O)N[C@@H](CCCCN)C(=O)N[C@@H](CC(C)C)C(=O)N[C@@H](CCCCNC(=O)COCCOCCNC(=O)COCCOCCNC(=O)CC[C@H](NC(=O)CCCCCCCCCCCCCCCCC(=O)O)C(=O)O)C(=O)N[C@@H](CCC(N)=O)C(=O)N[C@H](C(=O)N[C@@H](CC(C)C)C(=O)N[C@@H](CC(C)C)C(=O)N[C@@H](CCCCN)C(=O)N[C@@H](CCC(N)=O)C(=O)N[C@@H](CCC(=O)O)C(=O)N[C@@H](CCCNC(=N)N)C(=O)N[C@@H](CCC(N)=O)C(=O)N[C@@H](CCCCN)C(=O)N[C@@H](CCCCN)C(=O)N[C@@H](CCC(N)=O)C(=O)N[C@@H](CCCNC(=N)N)C(=O)N[C@@H](CCC(=O)O)C(=O)N[C@@H](CCC(N)=O)C(=O)N[C@@H](C)C(=O)N[C@@H](CCC(=O)O)C(=O)N[C@@H](CCCCN)C(=O)N[C@@H](CC(N)=O)C(=O)N[C@@H](CCCCN)C(=O)N[C@@H](CCC(N)=O)C(=O)N[C@H](C(=O)N[C@@H](CC(C)C)C(=O)N[C@@H](CCC(=O)O)C(=O)N[C@@H](CCC(N)=O)C(=O)N[C@H](C(N)=O)C(C)C)[C@@H](C)CC)[C@@H](C)CC)[C@@H](C)CC)C(C)C)C(C)C [compound 137] (H-IVLSLD[dV]PIKLK([AEEA-AEEA-γGlu-C18 diacid])QILLKQERQKKQREQAEKNKQILEQV-NH2; N-terminus assumed)
0.1	3.05	> 1000	37.6	0.03	1.31	CC[C@H](C)[C@H](N)C(=O)N[C@H](C(=O)N[C@@H](CC(C)C)C(=O)N[C@@H](CO)C(=O)N[C@@H](CC(C)C)C(=O)N[C@@H](CC(=O)O)C(=O)N[C@@H](C(=O)N1CCC[C@H]1C(=O)N[C@H](C(=O)N[C@@H](CCCCN)C(=O)N[C@@H](CC(C)C)C(=O)N[C@@H](CCCCNC(=O)COCCOCCNC(=O)COCCOCCNC(=O)CC[C@H](NC(=O)CCCCCCCCCCCCCCCCC(=O)O)C(=O)O)C(=O)N[C@@H](CCC(N)=O)C(=O)N[C@H](C(=O)N[C@@H](CC(C)C)C(=O)N[C@@H](CC(C)C)C(=O)N[C@@H](CCCCN)C(=O)N[C@@H](CCC(N)=O)C(=O)N[C@@H](CCC(=O)O)C(=O)N[C@@H](CCCNC(=N)N)C(=O)N[C@@H](CCC(N)=O)C(=O)N[C@@H](CCCCN)C(=O)N[C@@H](CCCCN)C(=O)N[C@@H](CCC(N)=O)C(=O)N[C@@H](CCCNC(=N)N)C(=O)N[C@@H](CCC(N)=O)C(=O)N[C@@H](CCC(N)=O)C(=O)N[C@@H](C)C(=O)N[C@@H](CCC(=O)O)C(=O)N[C@@H](CCCCN)C(=O)N[C@@H](CC(N)=O)C(=O)N[C@@H](CCCCN)C(=O)N[C@@H](CCC(N)=O)C(=O)N[C@H](C(=O)N[C@@H](CC(C)C)C(=O)N[C@@H](C)C(=O)N[C@@H](CCC(N)=O)C(=O)N[C@H](C(N)=O)C(C)C)[C@@H](C)CC)[C@@H](C)CC)[C@@H](C)CC)C(C)C)C(C)C [compound 139] (H-IVLSLD[dV]PIKLK([AEEA-AEEA-γGlu-C18 diacid])QILLKQERQKKQRQQAEKNKQILAQV-NH2; N-terminus assumed)

Source: patent US12679878B2, “CRF2 receptor agonists and their use in therapy” (SANOFI, priority 2020, dated 2026)
